Source: ChEMBL document CHEMBL1127096, “Synthesis and anticonvulsant activity of the (+)- and ()-enantiomers of 1,2,3,4-tetrahydro-5-(2-phosphonoethyl)-3-isoquinolinecarboxylic acid, a competitive NMDA antagonist” (Bioorg Med Chem Lett, 1993)

Tests used:
Mus musculus [1] = experiment: Tested in vivo for anticonvulsant activity against maximal electroshock in mouse, intravenously (MES tested at 1 h); format: functional
Mus musculus [2] = experiment: Tested in vivo for the ability to produce ataxia in mouse, intravenously. (ataxia tested at 30 min); format: functional
[3] = Tested for the therapeutic index, which was determined as the ratio of ED50 for ataxia and ED50 to prevent seizures; details: for selectivity ratio: read-out: TI
[4] = Partition coefficient (logP); format: physicochemical; details: octanol/water
[5] = Tested for the NMDA antagonist activity, glutamate induced LDH release in cultured neuronal cells; format: functional, cell-based
[6] = Tested for the NMDA antagonist activity, glutamate induced calcium influx in cultured neuronal cells; format: functional, cell-based
Glutamate NMDA receptor = experiment: Tested for the inhibitory activity against NMDA receptor site as measured in a [3H]CPP binding assay of rat brain neuronal membranes
Mus musculus [7] = experiment: Tested in vivo for anticonvulsant activity against maximal electroshock in mouse, intravenously; format: functional

| SMILES | ED50 (Mus musculus [1]) | ED50 (Mus musculus [2]) | selectivity ratio [3] | logP [4] | IC50 [5] | IC50 [6] | ED50 (Mus musculus [7]) | also measured |
| --- | --- | --- | --- | --- | --- | --- | --- | --- |
| O=C(O)[C@H]1Cc2c(CCP(=O)(O)O)cccc2CN1 | 3.56 mg/kg | 6.29 mg/kg | 1.76 | – | – | – | – | – |
| O=C(O)C1CN(CCCP(=O)(O)O)CCN1 (centres undefined) | – | – | 2.21 | -3.4 | 9 µM | 2.4 µM | – | ED50 (Mus musculus [1]; Mus musculus, iv, 1 h, read-out: ED50): 2.35 mg/kg; ED50 (Mus musculus [2]; Mus musculus, iv, 0.5 h, read-out: ED50): 5.21 mg/kg |
| O=C(O)[C@H]1Cc2c(CCP(=O)(O)O)cccc2CN1 (racemic) | 9.2 mg/kg | 15.84 mg/kg | – | 1.4 | 8.8 µM | 5.1 µM | – | IC50 (Glutamate NMDA receptor): 0.27 µM; TI [3]: 1.72 |
| C/C(=C\C(N)C(=O)O)CP(=O)(O)O (racemic) [CGP-37849] | – | – | – | – | – | – | 21 mg/kg | – |
| C/C(=C\C(N)C(=O)O)CP(=O)(O)O (single isomer, unassigned; (+)) [CGP-37849] | – | – | – | – | – | – | 7 mg/kg | – |
| C/C(=C\C(N)C(=O)O)CP(=O)(O)O (single isomer, unassigned; (-)) [CGP-37849] | – | – | – | – | – | – | >60 mg/kg | – |
